Experimental data from PubChem BioAssay AID2060886 (Molecular Pharmacology Branch, DTP, NCI, 2025).

Tested on: 653999-131-R-J2-PDC complex spheroids, growth inhibition
Test: Anticancer human tumor 653999-131-R-J2-PDC patient-derived lung adenocarcinoma cell line growth inhibition [RAS]
Settings: for IC50: curve of first compound; for viability, T/C: stronger effect = lower value
Outline: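 Agents were tested in combination matrices in half-log decrements from a top concentration at or near clinical Cmax (10 microM if undetermined). Targets were multi-cell spheroids of tumour lines plus HUVEC and MSC stromal cells.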

[1] = second compound 0.0316 µM, first compound 0.00316 µM
[2] = second compound 0.0316 µM, first compound 0.01 µM
[3] = second compound 0.0316 µM, first compound 0.0316 µM
[4] = second compound 0.0316 µM, first compound 0.1 µM
[5] = second compound 0.0316 µM, first compound 0.316 µM
[6] = second compound 0.0316 µM, first compound 1 µM
[7] = second compound 0.1 µM, first compound 0.00316 µM
[8] = second compound 0.1 µM, first compound 0.01 µM
[9] = second compound 0.1 µM, first compound 0.0316 µM
[10] = second compound 0.1 µM, first compound 0.1 µM
[11] = second compound 0.1 µM, first compound 0.316 µM
[12] = second compound 0.1 µM, first compound 1 µM
[13] = second compound 0.316 µM, first compound 0.00316 µM
[14] = second compound 0.316 µM, first compound 0.01 µM
[15] = second compound 0.316 µM, first compound 0.0316 µM
[16] = second compound 0.316 µM, first compound 0.1 µM
[17] = second compound 0.316 µM, first compound 0.316 µM
[18] = second compound 0.316 µM, first compound 1 µM
[19] = second compound 1 µM, first compound 0.00316 µM
[20] = second compound 1 µM, first compound 0.01 µM
[21] = second compound 1 µM, first compound 0.0316 µM
[22] = second compound 1 µM, first compound 0.1 µM
[23] = second compound 1 µM, first compound 0.316 µM
[24] = second compound 1 µM, first compound 1 µM
[25] = second compound 3.16 µM, first compound 0.00316 µM
[26] = second compound 3.16 µM, first compound 0.01 µM
[27] = second compound 3.16 µM, first compound 0.0316 µM
[28] = second compound 3.16 µM, first compound 0.1 µM
[29] = second compound 3.16 µM, first compound 0.316 µM
[30] = second compound 3.16 µM, first compound 1 µM
[31] = second compound 10 µM, first compound 0.00316 µM
[32] = second compound 10 µM, first compound 0.01 µM
[33] = second compound 10 µM, first compound 0.0316 µM
[34] = second compound 10 µM, first compound 0.1 µM
[35] = second compound 10 µM, first compound 0.316 µM
[36] = second compound 10 µM, first compound 1 µM
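Note: spheroids exposed to the agents for seven days before the readout.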

Nc1ccn(C2OC(CO)C(O)C2(F)F)c(=O)n1 (stereo not drawn) + C#Cc1c(F)ccc2cc(O)cc(-c3ncc4c(N5CC6CCC(C5)N6)nc(OCC56CCCN5CC(F)C6)nc4c3F)c12
IC50 (second compound 0.0316 µM): 71.1 nM | IC50 (second compound 0.1 µM): 36.8 nM | IC50 (second compound 0.316 µM): 11.8 nM | IC50 (second compound 1 µM): 3.37 nM | IC50 (second compound 3.16 µM): < 3.16 nM | IC50 (second compound 10 µM): < 3.16 nM | viability, T/C [1]: 98.5% | viability, T/C [2]: 74.4% | viability, T/C [3]: 58.3% | viability, T/C [4]: 48.5% | viability, T/C [5]: 36.6% | viability, T/C [6]: 32.4% | viability, T/C [7]: 96.9% | viability, T/C [8]: 59.8% | viability, T/C [9]: 56.4% | viability, T/C [10]: 46% | viability, T/C [11]: 34.6% | viability, T/C [12]: 31.4% | viability, T/C [13]: 58.1% | viability, T/C [14]: 52.4% | viability, T/C [15]: 39.2% | viability, T/C [16]: 32.1% | viability, T/C [17]: 27.6% | viability, T/C [18]: 26.5% | viability, T/C [19]: 50.5% | viability, T/C [20]: 43% | viability, T/C [21]: 29.8% | viability, T/C [22]: 20.9% | viability, T/C [23]: 19.9% | viability, T/C [24]: 18.9% | viability, T/C [25]: 35.4% | viability, T/C [26]: 28.4% | viability, T/C [27]: 19.1% | viability, T/C [28]: 14.9% | viability, T/C [29]: 14.6% | viability, T/C [30]: 14.5% | viability, T/C [31]: 33.6% | viability, T/C [32]: 13.5% | viability, T/C [33]: 21.2% | viability, T/C [34]: 13.9% | viability, T/C [35]: 12.7% | viability, T/C [36]: 10.1%

C=CC(=O)Nc1cc(Nc2nccc(-c3cn(C)c4ccccc34)n2)c(OC)cc1N(C)CCN(C)C + C#Cc1c(F)ccc2cc(O)cc(-c3ncc4c(N5CC6CCC(C5)N6)nc(OCC56CCCN5CC(F)C6)nc4c3F)c12
IC50 (second compound 0.0316 µM): > 1000 nM | IC50 (second compound 0.1 µM): 613 nM | IC50 (second compound 0.316 µM): 61.7 nM | IC50 (second compound 1 µM): 17.7 nM | IC50 (second compound 3.16 µM): < 3.16 nM | IC50 (second compound 10 µM): < 3.16 nM | viability, T/C [1]: 96.1% | viability, T/C [2]: 80.7% | viability, T/C [3]: 82.9% | viability, T/C [4]: 68.3% | viability, T/C [5]: 55.5% | viability, T/C [6]: 63.3% | viability, T/C [7]: 89.4% | viability, T/C [8]: 90.8% | viability, T/C [9]: 57.7% | viability, T/C [10]: 69.9% | viability, T/C [11]: 57.2% | viability, T/C [12]: 44.3% | viability, T/C [13]: 77% | viability, T/C [14]: 95% | viability, T/C [15]: 65.1% | viability, T/C [16]: 37.1% | viability, T/C [17]: 40.9% | viability, T/C [18]: 39.2% | viability, T/C [19]: 60.9% | viability, T/C [20]: 53.7% | viability, T/C [21]: 43.2% | viability, T/C [22]: 42.8% | viability, T/C [23]: 36.1% | viability, T/C [24]: 28.1% | viability, T/C [25]: 45.6% | viability, T/C [26]: 35.2% | viability, T/C [27]: 38.3% | viability, T/C [28]: 25.9% | viability, T/C [29]: 22.8% | viability, T/C [30]: 19.6% | viability, T/C [31]: 35.2% | viability, T/C [32]: 27.7% | viability, T/C [33]: 26.4% | viability, T/C [34]: 15.5% | viability, T/C [35]: 15.2% | viability, T/C [36]: 10.5%

NC1c2ccccc2OC12CCN(c1cnc3c(N4CCCc5ncccc54)n[nH]c3n1)CC2 (stereo not drawn) + C#Cc1c(F)ccc2cc(O)cc(-c3ncc4c(N5CC6CCC(C5)N6)nc(OCC56CCCN5CC(F)C6)nc4c3F)c12
IC50 (second compound 0.0316 µM): > 10000 nM | IC50 (second compound 0.1 µM): 1390 nM | IC50 (second compound 0.316 µM): < 31.6 nM | IC50 (second compound 1 µM): < 31.6 nM | IC50 (second compound 3.16 µM): < 31.6 nM | IC50 (second compound 10 µM): < 31.6 nM | viability, T/C [3]: 72.8% | viability, T/C [4]: 67.5% | viability, T/C [5]: 64.5% | viability, T/C [6]: 72.2% | viability, T/C (second compound 0.0316 µM, first compound 3.16 µM): 71.3% | viability, T/C (second compound 0.0316 µM, first compound 10 µM): 60.2% | viability, T/C [9]: 64.5% | viability, T/C [10]: 75.4% | viability, T/C [11]: 60.1% | viability, T/C [12]: 53.2% | viability, T/C (second compound 0.1 µM, first compound 3.16 µM): 44.6% | viability, T/C (second compound 0.1 µM, first compound 10 µM): 41.1% | viability, T/C [15]: 48% | viability, T/C [16]: 50.4% | viability, T/C [17]: 40.4% | viability, T/C [18]: 42.7% | viability, T/C (second compound 0.316 µM, first compound 3.16 µM): 32.6% | viability, T/C (second compound 0.316 µM, first compound 10 µM): 45.8% | viability, T/C [21]: 41.7% | viability, T/C [22]: 34.8% | viability, T/C [23]: 33.9% | viability, T/C [24]: 32.4% | viability, T/C (second compound 1 µM, first compound 3.16 µM): 32.7% | viability, T/C (second compound 1 µM, first compound 10 µM): 19.5% | viability, T/C [27]: 30.3% | viability, T/C [28]: 25.8% | viability, T/C [29]: 16.9% | viability, T/C [30]: 18.1% | viability, T/C (second compound 3.16 µM, first compound 3.16 µM): 18.7% | viability, T/C (second compound 3.16 µM, first compound 10 µM): 13% | viability, T/C [33]: 12% | viability, T/C [34]: 7.13% | viability, T/C [35]: 7.02% | viability, T/C [36]: 6.33% | viability, T/C (second compound 10 µM, first compound 3.16 µM): 7.29% | viability, T/C (second compound 10 µM, first compound 10 µM): 7.2%

CC(C)n1nc(-c2ccc3oc(N)nc3c2)c2c(N)ncnc21 + C=CC(=O)N1CCN(c2nc(OCC3CCCN3C)nc3c(F)c(-c4nc(N)cc(C)c4C(F)(F)F)c(Cl)cc23)C(C)C1
IC50 (second compound 0.00316 µM): 14.2 nM | IC50 (second compound 0.01 µM): 9.4 nM | IC50 (second compound 0.0316 µM): 16.4 nM | IC50 (second compound 0.1 µM): 12.4 nM | IC50 (second compound 0.316 µM): 11.7 nM | IC50 (second compound 1 µM): 15.9 nM | viability, T/C (second compound 0.00316 µM, first compound 0.000316 µM): 98.1% | viability, T/C (second compound 0.00316 µM, first compound 0.001 µM): 78.4% | viability, T/C (second compound 0.00316 µM, first compound 0.00316 µM): 73.5% | viability, T/C (second compound 0.00316 µM, first compound 0.01 µM): 52.5% | viability, T/C (second compound 0.00316 µM, first compound 0.0316 µM): 41.5% | viability, T/C (second compound 0.00316 µM, first compound 0.1 µM): 22.6% | viability, T/C (second compound 0.01 µM, first compound 0.000316 µM): 83.8% | viability, T/C (second compound 0.01 µM, first compound 0.001 µM): 97.3% | viability, T/C (second compound 0.01 µM, first compound 0.00316 µM): 68.8% | viability, T/C (second compound 0.01 µM, first compound 0.01 µM): 50.5% | viability, T/C (second compound 0.01 µM, first compound 0.0316 µM): 35% | viability, T/C (second compound 0.01 µM, first compound 0.1 µM): 29.1% | viability, T/C (second compound 0.0316 µM, first compound 0.000316 µM): 101% | viability, T/C (second compound 0.0316 µM, first compound 0.001 µM): 91.3% | viability, T/C [1]: 71.8% | viability, T/C [2]: 58.1% | viability, T/C [3]: 40.6% | viability, T/C [4]: 25% | viability, T/C (second compound 0.1 µM, first compound 0.000316 µM): 77.6% | viability, T/C (second compound 0.1 µM, first compound 0.001 µM): 74.6% | viability, T/C [7]: 70.7% | viability, T/C [8]: 55.2% | viability, T/C [9]: 30.4% | viability, T/C [10]: 26.3% | viability, T/C (second compound 0.316 µM, first compound 0.000316 µM): 92.8% | viability, T/C (second compound 0.316 µM, first compound 0.001 µM): 82% | viability, T/C [13]: 66.3% | viability, T/C [14]: 51.1% | viability, T/C [15]: 39.7% | viability, T/C [16]: 27.8% | viability, T/C (second compound 1 µM, first compound 0.000316 µM): 90.9% | viability, T/C (second compound 1 µM, first compound 0.001 µM): 91.8% | viability, T/C [19]: 72% | viability, T/C [20]: 55.8% | viability, T/C [21]: 42.1% | viability, T/C [22]: 26.6%
